Patent US11066414B2, “Cot modulators and methods of use thereof” (Gilead Sciences, Inc., priority 2015, dated 2021)
pEC50, pIC50: −log10 of the molar value. Like-named read-outs stand apart in the source and are kept apart here.

How the values were obtained:
Human Cot = Human Cot (Homo sapiens (Human), UniProt P41279); experiment: High Throughput Cot Biochemical Assay; conditions: Cot HTRF (TR-FRET) biochemical assay
TNFα = experiment: Cot Monocyte TNFα Cell Based Assay
[1] = Homo sapiens, Monocyte, read-out: EC50 TNF, LPS-stimulated human monocytes, TNFα
[2] = read-out: EC50 TNF, LPS-stimulated human monocytes, TNFα

Chain of Human Cot (P41279 30-397): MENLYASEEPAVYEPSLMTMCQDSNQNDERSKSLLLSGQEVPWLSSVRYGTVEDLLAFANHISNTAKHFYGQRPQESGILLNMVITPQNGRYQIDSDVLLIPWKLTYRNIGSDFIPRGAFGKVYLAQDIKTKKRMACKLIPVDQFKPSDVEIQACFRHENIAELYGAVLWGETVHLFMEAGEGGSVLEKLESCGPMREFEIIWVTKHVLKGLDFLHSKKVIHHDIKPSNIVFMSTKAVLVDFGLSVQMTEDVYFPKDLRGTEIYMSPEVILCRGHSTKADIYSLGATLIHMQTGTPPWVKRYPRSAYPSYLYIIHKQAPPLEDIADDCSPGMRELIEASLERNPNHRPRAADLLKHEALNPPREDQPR

SMILES	pIC50 (Human Cot; IC50 HTRF)	pEC50 (TNFα; [1])	pIC50 (Human Cot; read-out: IC50 HTRF)	pEC50 (TNFα; [2])
Cn1cnc2c([C@H](Nc3cc(Cl)c4ncc(C#N)c(NCC(C)(C)C)c4c3)c3cn(C4(C(F)(F)F)CC4)nn3)cccc21 [Example 520, (S)-8-chloro-6-(((1-methyl-1H-benzo[d]imidazol-4-yl)(1-(1-(trifluoromethyl)cyclopropyl)-1H-1,2,3-triazol-4-yl)methyl)amino)-4-(neopentylamino)quinoline-3-carbonitrile]	6.91	6.03	–	–
Cn1nnc2cccc([C@H](Nc3cc(Cl)c4ncc(C#N)c(NCC(C)(C)C)c4c3)c3cn(C4(C(F)(F)F)CC4)nn3)c21 [Example 522, (S)-8-chloro-6-(((1-methyl-1H-benzo[d] [1,2,3]triazol-7-yl)(1-(1-(trifluoromethyl)-cyclopropyl)-1H-1,2,3-triazol-4-yl)methyl)amino)-4-(neopentylamino)-quinoline-3-carbonitrile]	8.30	7.28	–	–
Cn1cnc2cccc([C@H](Nc3cc(C#N)c4ncc(C#N)c(NCC(C)(C)C)c4c3)c3cn(C4(C(F)F)CC4)nn3)c21 [Example 523]	–	–	8.70	7.20
Cn1nnc2cccc([C@H](Nc3cc(C#N)c4ncc(C#N)c(NCC(C)(C)C)c4c3)c3cn(C4(C(F)(F)F)CC4)nn3)c21 [Example 527, (S)-6-(((1-methyl-1H-benzo[d][1,2,3]triazol-7-yl)(1-(1-(trifluoromethyl)cyclopropyl)-1H-1,2,3-triazol-4-yl)methyl)amino)-4-(neopentylamino)quinoline-3,8-dicarbonitrile]	8.52	7.11	–	–
Cc1n[nH]c2cccc([C@H](Nc3cc(C#N)c4ncc(C#N)c(NCC(C)(C)C)c4c3)c3cn(C4(C(F)(F)F)CC4)nn3)c12 [Example 528, (S)-6-(((3-methyl-1H-indazol-4-yl)(1-(1-(trifluoro-methyl)cyclopropyl)-1H-1,2,3-triazol-4-yl)methyl)amino)-4-(neopentylamino)quinoline-3,8-dicarbonitrile]	8.52	7.22	–	–
Cn1ncc2c([C@H](Nc3cc(C#N)c4ncc(C#N)c(NCC(C)(C)C)c4c3)c3cn(C4(C)CC4)nn3)cccc21 [Example 529, (S)-6-(((1-methyl-1H-indazol-4-yl)(1-(1-methylcyclopropyl)-1H-1,2,3-triazol-4-yl)methyl)amino)-4-(neopentylamino)-quinoline-3,8-dicarbonitrile]	8.70	7.30	–	–
Cc1nc(F)ccc1[C@H](Nc1cc(Cl)c2ncc(C#N)c(NCC(C)(C)C)c2c1)c1cn(C(C)(C)C)nn1 [Example 530, (S)-6-(((1-(tert-butyl)-1H-1,2,3-triazol-4-yl)(6-fluoro-2-methylpyridin-3-yl)methyl- )amino)-8-chloro-4-(neopentylamino)-quinoline-3-carbonitrile]	–	–	8.52	7.15
Cc1nc(F)ccc1[C@H](Nc1cc(Cl)c2ncc(C#N)c(NCC(C)(C)C)c2c1)c1cn(C(C)(C)CF)nn1 [Example 531, (S)-8-chloro-6-(((1-(1-fluoro-2-methyl-propan-2-yl)-1H-1,2,3-triazol-4-yl)(6-fluoro-2-methylpyridin-3-yl)methyl)amino)-4-(neopentylamino)quinoline-3-carbonitrile]	8.52	7.15	–	–
Cc1nc(F)ccc1[C@H](Nc1cc(Cl)c2ncc(C#N)c(NCC(C)(C)C)c2c1)c1cn(CC(F)F)nn1 [Example 532, (S)-8-chloro-6-(((1-(2,2-difluoroethyl)-1H-1,2,3-triazol-4-yl)(6-fluoro-2-methyl-pyridin-3-yl)methyl)amino)-4-(neopentyl-amino)quinoline-3-carbonitrile]	8.52	7.11	–	–
Cc1nc(F)ccc1[C@H](Nc1cc(Cl)c2ncc(C#N)c(NCC(C)(C)CO)c2c1)c1cn(C2(C(F)(F)F)CC2)nn1 [Example 534, (S)-8-chloro-6-(((6-fluoro-2-methylpyridin-3-yl)(1-(1-(trifluoromethyl)cyclopropyl)-1H-1,2,3-triazol-4-yl)methyl)amino)-4-((3-hydroxy-2,2-dimethylpropyl)amino)-quinoline-3-carbonitrile]	7.70	6.40	–	–
Cc1nc(F)ccc1[C@H](Nc1cc(Cl)c2ncc(C#N)c(N[C@@H]3CCOCC3(C)C)c2c1)c1cn(C2(C(F)F)CC2)nn1 [Example 539, 8-chloro-6-(((S)-(1-(1-(difluoromethyl)-cyclopropyl)-1H-1,2,3-triazol-4-yl)(6-fluoro-2-methylpyridin-3-yl)methyl)-amino)-4-(((R)-3,3-dimethyltetrahydro-2H-pyran-4-yl)amino)quinoline-3-carbonitrile]	9.00	7.92	–	–

Other lines, results leading:

pIC50 (Human Cot; IC50 HTRF)	pEC50 (TNFα; [1])	pIC50 (Human Cot; read-out: IC50 HTRF)	pEC50 (TNFα; [2])	SMILES
7.57	6.59	–	–	Cn1ncc2cccc([C@H](Nc3cc(Cl)c4ncc(C#N)c(NCC(C)(C)C)c4c3)c3cn(C4(C(F)(F)F)CC4)nn3)c21 [Example 521, (S)-8-chloro-6-(((1-methyl-1H-indazol-7-yl)(1-(1-(trifluoromethyl)-cyclopropyl)-1H-1,2,3-triazol-4-yl)methyl)amino)-4-(neopentylamino)-quinoline-3-carbonitrile]
8.40	6.79	–	–	Cn1ncc2c([C@H](Nc3cc(Cl)c4ncc(C#N)c(NCC(C)(C)C)c4c3)c3cn(C4(C)CC4)nn3)cccc21 [Example 525, (S)-8-chloro-6-(((1-methyl-1H-indazol-4-yl)(1-(1-methylcyclopropyl)-1H-1,2,3-triazol-4-yl)methyl)amino)-4-(neopentylamino)quinoline-3-carbonitrile]
8.52	7.02	–	–	CC(C)(C)CNc1c(C#N)cnc2c(Cl)cc(N[C@H](c3cn(C4(C(F)(F)F)CC4)nn3)c3cccc4ccncc34)cc12 [Example 533, (S)-8-chloro-6-((isoquinolin-8-yl(1-(1-(trifluoromethyl)cyclopropyl)-1H-1,2,3-triazol-4-yl)methyl)amino)-4-(neopentyl-amino)quinoline-3-carbonitrile]
8.52	7.29	–	–	CC(C)(C)CNc1c(C#N)cnc2c(Cl)cc(N[C@H](c3cn(C4(C(F)F)CC4)nn3)c3cccc4cnccc34)cc12 [Example 536, (S)-8-chloro-6-(((1-(1-(difluoromethyl)-cyclopropyl)-1H-1,2,3-triazol-4-yl)(isoquinolin-5-yl)methyl)amino)-4-(neopentylamino)quinoline-3-carbonitrile]
8.70	7.12	–	–	CC(C)(C)CNc1c(C#N)cnc2c(Cl)cc(N[C@H](c3cn(C4(C(F)F)CC4)nn3)c3cccc4ccncc34)cc12 [Example 537, (S)-8-chloro-6-(((1-(1-(difluoromethyl)-cyclopropyl)-1H-1,2,3-triazol-4-yl)(isoquinolin-8-yl)methyl)amino)-4-(neopentylamino)quinoline-3-carbonitrile]
8.30	6.96	–	–	CC(C)(C)CNc1c(C#N)cnc2c(Cl)cc(N[C@H](c3cn(C4(C(F)F)CC4)nn3)c3cccn4nccc34)cc12 [Example 538, (S)-8-chloro-6-(((1-(1-(difluoromethyl)-cyclopropyl)-1H-1,2,3-triazol-4-yl)(pyrazolo[1,5-a]pyridin-4-yl)methyl)amino)-4-(neopentylamino)-quinoline-3-carbonitrile]
